Test: cn = amount concentration of the nth substance listed, in mol/dm3
Settings: 101 kPa, Liquid, Dip Cell

CCCCCCCCCCCCCCCC[N+](C)(C)CCCCC[N+](C)(C)CCCCCCCCCCCCCCCC.[Br-].[Br-] + O
electrical conductivity [S/m]
Settings	298 K	303 K	308 K	313 K
c1 = 3.3e-06	6.8e-05	6.9e-05	7e-05	7.1e-05
c1 = 6.6e-06	0.000129	0.000135	0.000148	0.00015
c1 = 9.9e-06	0.00021	0.000219	0.00023	0.000236
c1 = 1.32e-05	0.000279	0.00029	0.000292	0.000308
c1 = 1.64e-05	0.000358	0.000376	0.000385	0.000396
c1 = 1.96e-05	0.000418	0.000432	0.000442	0.000456
c1 = 2.28e-05	0.000495	0.000505	0.000514	0.000519
c1 = 2.6e-05	0.000557	0.000564	0.000579	0.000584
c1 = 2.91e-05	0.000634	0.000646	0.000659	0.000684
c1 = 3.23e-05	0.000684	0.000699	0.000715	0.000732
c1 = 3.54e-05	0.000746	0.000766	0.000779	0.000789
c1 = 3.85e-05	0.000803	0.000816	0.000826	0.00087
c1 = 4.15e-05	0.000873	0.000873	0.000896	0.000945
c1 = 4.46e-05	0.000935	0.000935	0.000956	0.000998
c1 = 4.76e-05	0.001	0.001	0.00101	0.00108
c1 = 5.06e-05	0.00103	0.00105	0.00106	0.00112
c1 = 5.36e-05	0.00109	0.00113	0.00113	0.00115
c1 = 5.66e-05	0.00113	0.00116	0.00116	0.00121
c1 = 5.96e-05	0.00119	0.00122	0.00123	0.00125
c1 = 6.25e-05	0.00123	0.00127	0.00129	0.00129
c1 = 6.54e-05	0.00128	0.00132	0.00135	0.00135
c1 = 6.83e-05	0.00133	0.00137	0.00138	0.0014
c1 = 7.12e-05	0.00137	0.00142	0.00145	0.00144
c1 = 7.41e-05	0.00142	0.00146	0.00147	0.00148
c1 = 7.69e-05	0.00144	0.00149	0.0015	0.00152
